PMC4783701 (Scientific Reports, 2016)
Values after ≈ are worked out from the molar mass of the structure shown. Values joined by “and” are separate entries in the source; they are usually repeats but may differ in a detail not shown here. Identical values can stand only once.

Tests used:
[1] = molecular target: PAN endonuclease (N-terminal domain of the PA subunit) (Influenza A virus, UniProt P03433); format: biochemical
influenza H1N1 virus [2] = experiment: microbe, parasite or virus in culture; format: cell-based, influenza A virus; settings: for IC50: Influenza A virus, H1N1, MDCK
MTT cytotoxicity assay = format: cell-based, canine; settings: dog, MDCK cells
Experimental: Selectivity index (SI) of each compound was defined as the ratio of CC50 over IC50. CC50 value was determined with MTT assay according to the manufacturer’s protocol (Invitrogen), while IC50 data was obtained by plaque reduction assay. Both assays were done in MDCK cells and values were calculated using Sigma plot 12.0 (SPSS).

influenza H1N1 virus [3] = format: cell-based, influenza A virus
H1N1 virus = experiment: microbe, parasite or virus in culture; format: cell-based; settings: Influenza A virus, H1N1, MDCK, 24 h
H3N2 virus = format: cell-based, influenza A virus; settings: MDCK, MOI 0.002, 24 h post-infection
H5N1 virus = experiment: microbe, parasite or virus in culture; format: cell-based; settings: Influenza A virus, H5N1, MDCK, 24 h
H7N7 virus = experiment: microbe, parasite or virus in culture; format: cell-based; settings: Influenza A virus, H7N7, MDCK, 24 h
H7N9 virus = format: cell-based, influenza A virus; settings: MDCK, MOI 0.002, 24 h post-infection
H9N2 virus = experiment: microbe, parasite or virus in culture; format: cell-based; settings: Influenza A virus, H9N2, MDCK, 24 h
[4] = tested on: multiple subtypes of influenza virus, including H1N1, H3N2, H5N1, H7N7, H7N9, and H9N2; format: cell-based, influenza A virus; settings: all tested subtypes; for inhibition of viral replication: serial-diluted compound
influenza H1N1 virus [5] = format: cell-based, influenza A virus; remark: listed apart in the source
[6] = molecular target: influenza polymerase activity (PB1, PB2, PA, NP) (Influenza A virus, UniProt P03433); format: cell-based
PAN protein = PAN protein (Influenza A virus, UniProt P03433); experiment: biochemical; format: binding
Solubility in PBS = format: physicochemical; settings: read-out: solubility limitation

O=C1N=c2ccccc2=C1NNC1=NC(=O)/C(=C2/C(=O)Nc3ccccc32)S1 [ANA-0, (5Z)-2-[2-(2-oxoindol-3-yl)hydrazinyl]-5-(2-oxo-1H-indol-3-ylidene)-1,3-thiazol-4-one]
IC50 compared with that of DPBA [1]: lower IC50s | Selectivity Index (CC50/IC50) (influenza H1N1 virus [2]): > 500 | IC50 (influenza H1N1 virus [2]): 800 ± 100 nM | CC50 (MTT cytotoxicity assay): > 400000 nM | reduction in supernatant viral titer (influenza H1N1 virus [3]): 2–3 log | IC50 (H1N1 virus): < 1000 nM | concentration required for similar inhibition relative to H1N1 and H9N2 (H3N2 virus): 5 fold and > 5 fold | IC50 (H5N1 virus): ~2500 nM | IC50 (H7N7 virus): ~2500 nM | concentration required for similar inhibition relative to H1N1 and H9N2 (H7N9 virus): 5 fold and > 5 fold | IC50 (H9N2 virus): < 1000 nM | suppression of virus replication ([4]; 20 μM): more than 3 logs | inhibition of viral replication [4]: inhibited viral replication of all tested subtypes of influenza virus in a dose-dependent manner | antiviral efficacy when added during virus absorption (-1 h) and then removed (influenza H1N1 virus [5]): did not exert antiviral efficacy | intracellular and supernatant vRNA when added at 1 h p.i. and maintained (influenza H1N1 virus [5]): significant decrease of viral RNAs | intracellular viral mRNA production (influenza H1N1 virus [5]): reduced the viral mRNA production | vRNAs in cell lysates (influenza H1N1 virus [5]): subsequent decrease of vRNAs in cell lysates | luciferase activity (viral polymerase function) [6]: dose-dependent suppression of luciferase activity | Kd (PAN protein): 1100 nM | solubility (Solubility in PBS): 1000 µg/mL (≈ 2570 µM)

O=C([O-])Cc1c[nH]c2ccc(O)cc12.[K+] [Compound 5106705]
PAN Endonuclease Inhibition Postive [1]: Y

O=C1C=CC(=NS(=O)(=O)c2ccc(Cl)cc2)C=C1Cl [Compound 5158517]
PAN Endonuclease Inhibition Postive [1]: Y

O=C1C=CC(=O)C(C(=CNCc2ccccc2)[N+](=O)[O-])=C1 [Compound 5261378]
PAN Endonuclease Inhibition Postive [1]: Y

Nc1c(C(=O)O)cc(O)c2c1C(=O)c1ccccc1C2=O [Compound 5302115]
PAN Endonuclease Inhibition Postive [1]: Y | Anti-H1N1 Positive (influenza H1N1 virus [2]): Y

CN(C)c1ccc(C=C2SC(=NN=C3C(=O)Nc4ccccc43)NC2=O)cc1 [Compound 5404571]
PAN Endonuclease Inhibition Postive [1]: Y | Anti-H1N1 Positive (influenza H1N1 virus [2]): Y

Oc1c(Br)cc(C=NNc2nc3ccccc3s2)c(O)c1Br [Compound 5482349]
PAN Endonuclease Inhibition Postive [1]: Y | Anti-H1N1 Positive (influenza H1N1 virus [2]): Y

C=CCN1C(=O)C(=Cc2cccn2-c2cccc([N+](=O)[O-])c2)C(=O)NC1=S [Compound 5987504]
PAN Endonuclease Inhibition Postive [1]: Y | Anti-H1N1 Positive (influenza H1N1 virus [2]): Y

O=C1C(=O)c2ccccc2C(Cl)=C1Cl [Compound 6304348]
PAN Endonuclease Inhibition Postive [1]: Y

Nc1c(C(=O)O)cc(O)c2c1C(=O)c1ccccc1C2=O [PA-24]
Selectivity Index (CC50/IC50) (influenza H1N1 virus [2]): 129 | plaque number reduction (influenza H1N1 virus [2]): reduce the plaque number in a dose-dependent manner | IC50 (influenza H1N1 virus [2]): 1400 ± 300 nM | CC50 (MTT cytotoxicity assay): 180000 ± 15000 nM

CN(C)c1ccc(/C=C2\S/C(=N\N=C3\C(=O)Nc4ccccc43)NC2=O)cc1 [PA-30]
IC50 compared with that of DPBA [1]: lower IC50s | Selectivity Index (CC50/IC50) (influenza H1N1 virus [2]): > 200 | plaque number reduction (influenza H1N1 virus [2]): reduce the plaque number in a dose-dependent manner | IC50 (influenza H1N1 virus [2]): 1500 ± 200 nM | CC50 (MTT cytotoxicity assay): > 300000 nM | reduction in supernatant viral titer (influenza H1N1 virus [3]): 2–3 log | inhibition of viral replication [4]: inhibited viral replication of all tested subtypes of influenza virus in a dose-dependent manner | Kd (PAN protein): 1300 nM

Oc1c(Br)cc(/C=N/Nc2nc3ccccc3s2)c(O)c1Br [PA-35]
Selectivity Index (CC50/IC50) (influenza H1N1 virus [2]): 58 | plaque number reduction (influenza H1N1 virus [2]): reduce the plaque number in a dose-dependent manner | IC50 (influenza H1N1 virus [2]): 1300 ± 500 nM | CC50 (MTT cytotoxicity assay): 75000 ± 23000 nM

C=CCN1C(=O)/C(=C\c2cccn2-c2ccc([N+](=O)[O-])cc2)C(=O)NC1=S [PA-48]
Selectivity Index (CC50/IC50) (influenza H1N1 virus [2]): 10 | plaque number reduction (influenza H1N1 virus [2]): reduce the plaque number in a dose-dependent manner | IC50 (influenza H1N1 virus [2]): 2000 ± 100 nM | CC50 (MTT cytotoxicity assay): 20000 ± 5000 nM

CC(=O)N[C@H]1[C@H]([C@H](O)[C@H](O)CO)OC(C(=O)O)=C[C@@H]1N=C(N)N [zanamivir, reference compound]
intracellular and supernatant vRNA when added at 1 h p.i. and maintained (influenza H1N1 virus [5]): reduced the vRNA in the supernatant but not inside the cells
